According to patent US20160038468A1 (priority 2013, published 2016):
Read-outs that look alike come from different tables or passages of the source.

How the values were obtained:
Type in all cases: cell-based
Prevotella bivia = assay: Agar dilution MIC (CLSI), Prevotella bivia vaginal isolates
Prevotella timonensis = assay: Agar dilution MIC (CLSI), Prevotella timonensis vaginal isolates; details: for MIC: read-out: Minimal Inhibitory Concentration (MIC); for Number of strains with indicated MIC: 33 samples
Peptoniphilus harei = assay: Agar dilution MIC (CLSI), Peptoniphilus harei vaginal isolates; details: for MIC: read-out: Minimal Inhibitory Concentration (MIC)
[1] = Hoylesella timonensis, # tested 33
[2] = Peptoniphilus harei, # tested 23

CCC[C@@H]1C[C@@H](C(=O)N[C@@H]([C@H]2O[C@H](SC)[C@H](O)[C@@H](O)[C@H]2O)[C@H](C)Cl)N(C)C1 [Clindamycin]
14 (42) μg/ml: Resistant (Prevotella timonensis; number (%) of isolates, # tested 33, resistance: rifaximin >32, metronidazole >32, clindamycin >8 μg/ml)
19 (58) μg/ml: Susceptible (Prevotella timonensis; number (%) of isolates, # tested 33)
25 (74) μg/ml: Resistant (Prevotella bivia; number (%) of isolates, # tested 34, resistance: rifaximin >32, metronidazole >32, clindamycin >8 μg/ml)
0.125 µg/mL: MIC (Peptoniphilus harei; Peptoniphilus harei, isolate 601311V R) | MIC (Peptoniphilus harei; Peptoniphilus harei, isolate 601342V F) | MIC (Peptoniphilus harei; Peptoniphilus harei, isolate 601365V 14) | MIC (Peptoniphilus harei; Peptoniphilus harei, isolate 601426V D) | MIC (Peptoniphilus harei; Peptoniphilus harei, isolate 601430V 22)
21 (91) μg/ml: Susceptible (Peptoniphilus harei; number (%) of isolates, # tested 23)
2 (9) μg/ml: Resistant (Peptoniphilus harei; number (%) of isolates, # tested 23, resistance: rifaximin >32, metronidazole >32, clindamycin >8 μg/ml)
0.5 µg/mL: MIC (Peptoniphilus harei; Peptoniphilus harei, isolate 601248V 23) | MIC (Peptoniphilus harei; Peptoniphilus harei, isolate 601302V F1) | MIC (Peptoniphilus harei; Peptoniphilus harei, isolate 601374V F) | MIC (Peptoniphilus harei; Peptoniphilus harei, isolate 601388V Q) | MIC50 (Peptoniphilus harei; [2])
>128 µg/mL: Minimal Inhibitory Concentration (MIC) (Prevotella bivia; isolate 601243 15) | Minimal Inhibitory Concentration (MIC) (Prevotella bivia; isolate 601255 10) | Minimal Inhibitory Concentration (MIC) (Prevotella bivia; isolate 601261 C) | Minimal Inhibitory Concentration (MIC) (Prevotella bivia; isolate 601283 20) | Minimal Inhibitory Concentration (MIC) (Prevotella bivia; isolate 601285 14) | Minimal Inhibitory Concentration (MIC) (Prevotella bivia; isolate 601305 H) | Minimal Inhibitory Concentration (MIC) (Prevotella bivia; isolate 601340 31) | Minimal Inhibitory Concentration (MIC) (Prevotella bivia; isolate 601374 A1) | Minimal Inhibitory Concentration (MIC) (Prevotella bivia; isolate 601378 B) | Minimal Inhibitory Concentration (MIC) (Prevotella bivia; isolate 601379 19) | Minimal Inhibitory Concentration (MIC) (Prevotella bivia; isolate 601389 10) | Minimal Inhibitory Concentration (MIC) (Prevotella bivia; isolate 601392 14) | Minimal Inhibitory Concentration (MIC) (Prevotella bivia; isolate 601429 1) | Minimal Inhibitory Concentration (MIC) (Prevotella bivia; isolate 601433 19) | Minimal Inhibitory Concentration (MIC) (Prevotella bivia; isolate 601449 E) | Minimal Inhibitory Concentration (MIC) (Prevotella bivia; isolate 601453 A) | Minimal Inhibitory Concentration (MIC) (Prevotella bivia; isolate 601455 D1) | Minimal Inhibitory Concentration (MIC) (Prevotella bivia; isolate 601458 16) | Minimal Inhibitory Concentration (MIC) (Prevotella timonensis; isolate 301212 10) | Minimal Inhibitory Concentration (MIC) (Prevotella timonensis; isolate 601175 J) | Minimal Inhibitory Concentration (MIC) (Prevotella timonensis; isolate 601214 A) | Minimal Inhibitory Concentration (MIC) (Prevotella timonensis; isolate 601226 C) | Minimal Inhibitory Concentration (MIC) (Prevotella timonensis; isolate 601234 B) | Minimal Inhibitory Concentration (MIC) (Prevotella timonensis; isolate 601293 13) | Minimal Inhibitory Concentration (MIC) (Prevotella timonensis; isolate 601367 E) | Minimal Inhibitory Concentration (MIC) (Prevotella timonensis; isolate 601370 13) | Minimal Inhibitory Concentration (MIC) (Prevotella timonensis; isolate 601401 J) | Minimal Inhibitory Concentration (MIC) (Prevotella timonensis; isolate 601411 S) | Minimal Inhibitory Concentration (MIC) (Prevotella timonensis; isolate 601414 O) | Minimal Inhibitory Concentration (MIC) (Prevotella timonensis; isolate 601422 39) | Minimal Inhibitory Concentration (MIC) (Peptoniphilus harei; isolate 426868V D)
128 µg/mL: MIC (Prevotella timonensis; Hoylesella timonensis, isolate 601429 11)
0.03 µg/mL: MIC (Prevotella timonensis; Hoylesella timonensis, isolate 601080 5) | MIC (Prevotella timonensis; Hoylesella timonensis, isolate 601088 15) | MIC (Prevotella timonensis; Hoylesella timonensis, isolate 601093 24) | MIC (Prevotella timonensis; Hoylesella timonensis, isolate 601097 S) | MIC (Prevotella timonensis; Hoylesella timonensis, isolate 601098 B) | MIC (Prevotella timonensis; Hoylesella timonensis, isolate 601170 13) | MIC (Prevotella timonensis; Hoylesella timonensis, isolate 601178 19) | MIC (Prevotella timonensis; Hoylesella timonensis, isolate 601194 9B) | MIC (Prevotella timonensis; Hoylesella timonensis, isolate 601245 16) | MIC (Prevotella timonensis; Hoylesella timonensis, isolate 601252 B) | MIC (Prevotella timonensis; Hoylesella timonensis, isolate 601255 17) | MIC (Prevotella timonensis; Hoylesella timonensis, isolate 601266 18) | MIC (Prevotella timonensis; Hoylesella timonensis, isolate 601281 22) | MIC (Prevotella timonensis; Hoylesella timonensis, isolate 601287 H) | MIC (Prevotella timonensis; Hoylesella timonensis, isolate 601311 B) | MIC (Prevotella timonensis; Hoylesella timonensis, isolate 601388 S) | MIC (Prevotella timonensis; Hoylesella timonensis, isolate 601459 21) | MIC50 (Prevotella timonensis; [1])
0.06 µg/mL: MIC (Prevotella timonensis; Hoylesella timonensis, isolate 601167 13) | MIC (Prevotella timonensis; Hoylesella timonensis, isolate 601278 12)
1 µg/mL: MIC (Peptoniphilus harei; Peptoniphilus harei, isolate 601098V Q) | MIC (Peptoniphilus harei; Peptoniphilus harei, isolate 601212V 15) | MIC (Peptoniphilus harei; Peptoniphilus harei, isolate 601259V 11) | MIC (Peptoniphilus harei; Peptoniphilus harei, isolate 601289V C) | MIC (Peptoniphilus harei; Peptoniphilus harei, isolate 601326V F) | MIC90 (Peptoniphilus harei; [2])
17: Number of strains with indicated MIC (Prevotella timonensis; MIC 0.03 μg/ml)
0.25 µg/mL: MIC (Peptoniphilus harei; Peptoniphilus harei, isolate 601203V 8) | MIC (Peptoniphilus harei; Peptoniphilus harei, isolate 601293V 21) | MIC (Peptoniphilus harei; Peptoniphilus harei, isolate 601355V D) | MIC (Peptoniphilus harei; Peptoniphilus harei, isolate 601399V 16) | MIC (Peptoniphilus harei; Peptoniphilus harei, isolate 601409V L) | MIC (Peptoniphilus harei; Peptoniphilus harei, isolate 601413V 16) | MIC (Peptoniphilus harei; Peptoniphilus harei, isolate 601539V 25B)
2: Number of strains with indicated MIC (Prevotella timonensis; MIC 0.06 μg/ml) | Number of strains with indicated MIC (Peptoniphilus harei; MIC >[…], 23 samples)
1: Number of strains with indicated MIC (Prevotella timonensis; MIC […])
> 128 µg/mL: MIC (Prevotella timonensis; Hoylesella timonensis) | MIC90 (Prevotella timonensis; [1]) | MIC (Peptoniphilus harei; Peptoniphilus harei)
13: Number of strains with indicated MIC (Prevotella timonensis; MIC >[…])
9 (26) μg/ml: Susceptible (Prevotella bivia; number (%) of isolates, # tested 34)
